This is an account of results in paper PMC11203676, “Synthesis, Molecular Electron Density Theory Study, Molecular Docking, and Pharmacological Evaluation of New Coumarin–Sulfonamide–Nitroindazolyl–Triazole Hybrids as Monoamine Oxidase Inhibitors” (International Journal of Molecular Sciences, 2024).

The target of data set [1] is T1, hAChE (human recombinant AChE) (Homo sapiens, UniProt P22303).
T1 construct: purchased Sigma Aldrich (Milan, Italy)
The data set can be described thus: biochemical. The procedure: (§1) Human recombinant AChE, BChE from human serum, and human MAOs from baculovirus-infected insect cells were purchased from Sigma Aldrich (Milan, Italy). […] All experiments were carried out in triplicate and results expressed as mean ± SEM.
(§2) AChE/BChE and MAO A/B inhibition were, respectively, determined with the spectrophotometric method of Ellman, and a fluorimetric method using kynuramine as MAO substrate, as previously described.

The target of a further data set is T2, hMAO-A (Homo sapiens, UniProt P21397).
T2 construct: purchased Sigma Aldrich (Milan, Italy); host or cells: baculovirus-infected insect cells
T2 sequence (P21397 1-527): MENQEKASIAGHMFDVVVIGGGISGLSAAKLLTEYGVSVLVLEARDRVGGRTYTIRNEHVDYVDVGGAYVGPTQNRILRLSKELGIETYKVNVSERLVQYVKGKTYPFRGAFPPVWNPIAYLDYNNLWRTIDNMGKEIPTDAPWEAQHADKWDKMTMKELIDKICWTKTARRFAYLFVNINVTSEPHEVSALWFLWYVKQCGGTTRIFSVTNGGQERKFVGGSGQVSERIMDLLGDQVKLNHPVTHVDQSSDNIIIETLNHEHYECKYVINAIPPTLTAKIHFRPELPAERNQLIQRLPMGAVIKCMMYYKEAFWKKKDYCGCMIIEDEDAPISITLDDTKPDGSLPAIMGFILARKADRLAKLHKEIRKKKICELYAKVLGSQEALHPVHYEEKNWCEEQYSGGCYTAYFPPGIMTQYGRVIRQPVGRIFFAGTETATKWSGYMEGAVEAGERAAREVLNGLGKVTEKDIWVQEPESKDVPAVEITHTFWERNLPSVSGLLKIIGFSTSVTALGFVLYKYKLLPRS
The data set can be described thus: biochemical. Conditions: for inhibition at 10 µM: read-out: hMAO-A % Inhibition. On the procedure: as §1, §2

The next data set has as its target T3, hMAO-B (Homo sapiens, UniProt P27338).
T3 construct: purchased Sigma Aldrich (Milan, Italy); host or cells: baculovirus-infected insect cells
T3 sequence (P27338 1-520): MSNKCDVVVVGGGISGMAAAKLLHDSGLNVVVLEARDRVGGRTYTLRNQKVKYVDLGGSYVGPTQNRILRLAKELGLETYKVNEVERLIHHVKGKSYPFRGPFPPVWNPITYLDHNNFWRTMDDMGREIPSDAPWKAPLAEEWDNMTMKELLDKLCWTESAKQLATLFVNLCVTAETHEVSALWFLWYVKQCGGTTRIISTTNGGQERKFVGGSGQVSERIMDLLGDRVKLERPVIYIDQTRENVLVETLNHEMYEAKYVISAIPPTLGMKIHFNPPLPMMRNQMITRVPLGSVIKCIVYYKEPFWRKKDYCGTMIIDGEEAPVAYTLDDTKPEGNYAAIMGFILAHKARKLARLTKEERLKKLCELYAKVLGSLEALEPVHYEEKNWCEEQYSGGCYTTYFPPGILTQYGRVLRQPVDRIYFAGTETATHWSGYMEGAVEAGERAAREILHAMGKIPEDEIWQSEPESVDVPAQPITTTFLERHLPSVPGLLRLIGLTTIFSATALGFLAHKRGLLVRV
The data set can be described thus: MAO-B inhibition, fluorimetric method with kynuramine as substrate. The data set is classed as biochemical. The conditions noted are these: read-out: hMAO-B % Inhibition. On the procedure: as §1, §2

Data set [2] concerns the target T4, hBChE (BChE from human serum) (Homo sapiens, UniProt P06276).
T4 construct: BChE from human serum; purchased Sigma Aldrich (Milan, Italy); host or cells: human serum
The data set can be described thus: BChE inhibition, spectrophotometric method of Ellman. The data set is classed as biochemical. The conditions noted are these: at 10 µM concentration; ni: no inhibition; mean ± SEM (n = 3). On the procedure:
as §1, §2
On the technique in general: DTNB colorimetry detects thiols as they appear.

A word on the inhibition: it is the change of the read-out against control, counted positive when it falls. In general, IC50 refers to the midpoint of a concentration-inhibition curve. Low readings indicate higher potency, high ones lower potency. For orientation: melting point means the temperature of the solid-liquid transition.

T1 sequence (P22303 32-614): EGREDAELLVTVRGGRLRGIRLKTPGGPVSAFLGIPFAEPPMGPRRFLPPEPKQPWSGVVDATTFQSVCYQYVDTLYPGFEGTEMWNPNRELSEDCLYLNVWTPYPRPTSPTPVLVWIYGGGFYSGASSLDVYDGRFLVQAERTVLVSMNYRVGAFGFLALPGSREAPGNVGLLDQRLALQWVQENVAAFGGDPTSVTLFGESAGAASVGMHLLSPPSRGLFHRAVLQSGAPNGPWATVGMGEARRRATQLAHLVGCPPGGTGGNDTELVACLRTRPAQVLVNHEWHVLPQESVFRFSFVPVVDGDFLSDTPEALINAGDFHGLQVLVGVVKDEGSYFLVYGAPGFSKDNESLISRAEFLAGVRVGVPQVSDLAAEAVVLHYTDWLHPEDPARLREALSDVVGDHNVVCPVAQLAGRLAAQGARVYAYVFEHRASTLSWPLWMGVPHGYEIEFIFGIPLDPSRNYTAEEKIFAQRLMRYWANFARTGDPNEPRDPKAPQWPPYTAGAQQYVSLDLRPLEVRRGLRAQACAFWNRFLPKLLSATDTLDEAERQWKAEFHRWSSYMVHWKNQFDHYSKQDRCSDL
T4 sequence (P06276 29-602): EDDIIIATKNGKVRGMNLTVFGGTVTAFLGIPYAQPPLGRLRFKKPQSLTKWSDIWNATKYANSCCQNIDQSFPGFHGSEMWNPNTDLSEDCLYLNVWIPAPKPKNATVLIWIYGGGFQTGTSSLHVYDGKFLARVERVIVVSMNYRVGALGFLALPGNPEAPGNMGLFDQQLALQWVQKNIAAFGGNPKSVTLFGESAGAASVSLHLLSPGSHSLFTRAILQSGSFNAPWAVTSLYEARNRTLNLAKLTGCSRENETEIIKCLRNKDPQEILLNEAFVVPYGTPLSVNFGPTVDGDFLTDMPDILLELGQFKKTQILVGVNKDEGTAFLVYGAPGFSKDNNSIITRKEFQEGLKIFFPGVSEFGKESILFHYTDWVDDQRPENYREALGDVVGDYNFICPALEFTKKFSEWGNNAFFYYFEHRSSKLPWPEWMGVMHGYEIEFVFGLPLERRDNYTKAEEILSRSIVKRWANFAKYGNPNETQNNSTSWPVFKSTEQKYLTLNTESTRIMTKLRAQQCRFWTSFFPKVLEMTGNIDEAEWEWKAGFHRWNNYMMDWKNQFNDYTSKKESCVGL

For the compound `O=c1ccc2cc(NS(=O)(=O)c3ccc(Cl)cc3)ccc2o1` [11c, 4-Chloro-N-(2-oxo-2H-chromen-6-yl)benzenesulfonamide], the inhibition at 10 µM in data set [1] stood at 55 ± 3%; on hMAO-A it was 9 ± 4%; at hMAO-B it was 26 ± 4%. Moreover, in data set [2], the “hBChE % Inhibition” value was “ni”.
`O=c1ccc2cc(N(Cc3cn(CCn4ncc5ccc([N+](=O)[O-])cc54)nn3)S(=O)(=O)c3ccc(Cl)cc3)ccc2o1` [14c, 4-Chloro-N-((1-(2-(6-nitro-1H-indazol-1-yl)ethyl)-1H-1,2,3-triazol-4-yl)methyl)-N-(2-oxo-2H-chromen-6-yl)benzenesulfonamide]: the inhibition at 10 µM is 42 ± 1% in data set [1], 67 ± 5% on hMAO-A and 45 ± 1% on hMAO-B. The same compound returned an IC50 against hMAO-A of 28 ± 2.2 µM. The “hBChE % Inhibition” value in data set [2] is reported as “ni”.
For the compound `C#CCN(c1ccc2oc(=O)ccc2c1)S(=O)(=O)c1ccc(Cl)cc1` [13c, 4-Chloro-N-(2-oxo-2H-chromen-6-yl)-N-(prop-2-yn-1-yl)benzenesulfonamide], the inhibition at 10 µM in data set [1] is 48 ± 2%; at hMAO-A it was 37 ± 5%; on hMAO-B it was 20 ± 2%. Also, the “hBChE % Inhibition” value in data set [2] is on record as “ni”.
Turning to `COc1ccc(S(=O)(=O)N(Cc2cn(CCn3ncc4ccc([N+](=O)[O-])cc43)nn2)c2ccc3oc(=O)ccc3c2)cc1` [14b, 4-Methoxy-N-((1-(2-(6-nitro-1H-indazol-1-yl)ethyl)-1H-1,2,3-triazol-4-yl)methyl)-N-(2-oxo-2H-chromen-6-yl)benzenesulfonamide], the inhibition at 10 µM in data set [1] worked out at 44 ± 3%; at hMAO-A, 81 ± 5%; on hMAO-B it was 23 ± 4%; in data set [2] it was 31 ± 5%. This compound also gave an IC50 on hMAO-A of 16.9 ± 1.9 µM.
The matching figures for `Cc1ccc(S(=O)(=O)N(Cc2cn(CCn3ncc4ccc([N+](=O)[O-])cc43)nn2)c2ccc3oc(=O)ccc3c2)cc1` [14a, 4-Methyl-N-((1-(2-(6-nitro-1H-indazol-1-yl)ethyl)-1H-1,2,3-triazol-4-yl)methyl)-N-(2-oxo-2H-chromen-6-yl)benzenesulfonamide]: 51 ± 2%, 76 ± 5%, 39 ± 3%, 48 ± 4% and 14.8 ± 1.6 µM.
Take `C#CCN(c1ccc2oc(=O)ccc2c1)S(=O)(=O)c1ccc(OC)cc1` [13b, 4-Methoxy-N-(2-oxo-2H-chromen-6-yl)-N-(prop-2-yn-1-yl)benzenesulfonamide]: the figures for the inhibition at 10 µM (in data set [1]; on hMAO-A; at hMAO-B) were 49 ± 3%, 22 ± 7% and 28 ± 2%, respectively. The “hBChE % Inhibition” value in data set [2] is given as “ni”.
For the compound `CN(c1ccc2oc(=O)ccc2c1)S(=O)(=O)c1ccc(Cl)cc1`, the melting point fell in the range of 244 to 246 °C.
Consider `COc1ccc(S(=O)(=O)Nc2ccc3oc(=O)ccc3c2)cc1` [11b, 4-Methoxy-N-(2-oxo-2H-chromen-6-yl)benzenesulfonamide], for which the inhibition at 10 µM in data set [1] turned out to be 57 ± 4%; at hMAO-A, 26 ± 3%; on hMAO-B it was 34 ± 3%. In addition, the “hBChE % Inhibition” value in data set [2] is on record as “ni”.
As for `Cc1ccc(S(=O)(=O)Nc2ccc3oc(=O)ccc3c2)cc1` [11a, 4-Methyl-N-(2-oxo-2H-chromen-6-yl)benzenesulfonamide], the results for the inhibition at 10 µM (in data set [1]; on hMAO-A; on hMAO-B) were 55 ± 3%, 76 ± 3% and 45 ± 2%, respectively. On hMAO-A, this compound yielded an IC50 of 2.46 ± 0.67 µM. For the same compound, the “hBChE % Inhibition” value in data set [2] is recorded as “ni”.
Consider `C#CCN(c1ccc2oc(=O)ccc2c1)S(=O)(=O)c1ccc(C)cc1` [13a, 4-Methyl-N-(2-oxo-2H-chromen-6-yl)-N-(prop-2-yn-1-yl)benzenesulfonamide], for which the results for the inhibition at 10 µM (in data set [1]; at hMAO-A; on hMAO-B) were 60 ± 3%, 13 ± 5% and 12 ± 1%, respectively. The “hBChE % Inhibition” value in data set [2] is reported as “ni”.
